The source of these data is patent publication US11578084B2, “Condensed ring compounds having dopamine D3 receptor antagonistic effect” (Shionogi & Co., Ltd., priority 2018, dated 2023).

Experiment [1] concerns the target human recombinant dopamine D3 receptor (Homo sapiens (Human), UniProt P35462). As to the kind of experiment: Test of binding inhibition for dopamine D3 receptor ([3H]-Methylspiperone SPA). The conditions noted are these: Jump-In HEK cell membranes, 2 nM [3H]-Methylspiperone, 120 min at 25° C.; read-out: hD3_Ki. As to the method: (§1) (Experimental Conditions)
Cell membranes: Jump-In HEK cell membranes expressing human recombinant dopamine D3 receptor (4 μg/well)
(§2) Non-specific ligand: (final concentration) 10 μM Butaclamol [(+)-Butaclamol Hydrochloride, D033, Sigma]
(§3) SPA beads solution: SPA beads [WGA PVT SPA Scintillation Beads, RPNQ0001 (500 mg), RPNQ0060 (2 g), PerkinElmer] (0.2 mg/well)
(§4) Incubation time and temperature: 120 min at 25° C.
(§5) Butaclamol or the compounds of the present invention were weighed and DMSO was added to make a 10 mM solution. This solution was diluted to each concentration.
[^3H]-Methylspiperone was weighed and the buffer solution was added to make a 6 nM solution.
(§6) SPA beads were weighed and stirred in water to make a 50 mg/mL solution. Using this solution, a mixture with the cell membranes was prepared.
(§7) Jump-In HEK Cell membranes (final reaction amount: 4 μg protein/well), the SPA beads solution (final reaction amount: 0.2 mg/well) and the buffer solution were mixed and the mixed solution was left still for 1 hour or more at 4° C. Then, 50 μL of the mixture was added to each well of the plate. In addition, 25 μL of 6 nM [^3H]-Methylspiperone (final concentration: 2 nM) was added to each well. […] Non-specific binding was calculated based on the radioactivity of [^3H]-Methylspiperone in the presence of 10 μM non-labeled Butaclamol. The total binding was calculated using the radioactivity of [H]-Methylspiperone in the absence of the compounds of the present invention (vehicle). The Ki values were calculated from dose-response curves.
(§8) Binding activities of the compounds of the present invention were calculated from the following Binding Inhibition Rate (%): Inhibition Rate (%)=[1−(c−a)/(b−a)]×100 • a: Average cpm of non-specific binding • b: Average cpm of total binding • c: Cpm in the presence of each test compound

Experiment [2] addresses human recombinant dopamine D2 receptor (Homo sapiens (Human), UniProt P14416). The experiment is described as follows: Test of binding inhibition for dopamine D2 receptor ([3H]-Methylspiperone SPA). The following applies: Jump-In HEK cell membranes, read-out: hD2_Ki. As to the method: as §1
Cell membranes: Jump-In HEK cell membranes expressing human recombinant dopamine D2 receptor (2 μg/well)
as §2, §3, §4, §5, §6
as §7, with “amount: 2” for “amount: 4”, “were mixed,” for “were mixed”, “plate.” for “plate. In addition, 25 μL of 6 nM [^3H]-Methylspiperone (final concentration: 2 nM) was added to each well.”, “of [^3H]-Methylspiperone” for “of [H]-Methylspiperone”, “invention (Vehicle).” for “invention (vehicle).”
as §8

Where [3] appears, read: 1.2 nM [3H]-Methylspiperone, 120 min at 25° C.

Where two headings read alike, the source gives them in different places. A value given as a limit tells only on which side of the number the result lay.

Chain of human recombinant dopamine D3 receptor (P35462 whole entry): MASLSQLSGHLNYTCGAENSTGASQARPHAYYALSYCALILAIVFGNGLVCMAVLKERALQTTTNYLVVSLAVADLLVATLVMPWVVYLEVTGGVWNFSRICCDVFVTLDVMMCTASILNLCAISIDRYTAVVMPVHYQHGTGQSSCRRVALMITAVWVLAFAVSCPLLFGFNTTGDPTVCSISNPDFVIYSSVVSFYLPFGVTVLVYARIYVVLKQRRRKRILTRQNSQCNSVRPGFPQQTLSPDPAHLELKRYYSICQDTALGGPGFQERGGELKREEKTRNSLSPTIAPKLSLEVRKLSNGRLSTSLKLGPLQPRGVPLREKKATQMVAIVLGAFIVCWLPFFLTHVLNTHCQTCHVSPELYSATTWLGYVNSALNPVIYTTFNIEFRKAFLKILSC
Chain of human recombinant dopamine D2 receptor (P14416 whole entry): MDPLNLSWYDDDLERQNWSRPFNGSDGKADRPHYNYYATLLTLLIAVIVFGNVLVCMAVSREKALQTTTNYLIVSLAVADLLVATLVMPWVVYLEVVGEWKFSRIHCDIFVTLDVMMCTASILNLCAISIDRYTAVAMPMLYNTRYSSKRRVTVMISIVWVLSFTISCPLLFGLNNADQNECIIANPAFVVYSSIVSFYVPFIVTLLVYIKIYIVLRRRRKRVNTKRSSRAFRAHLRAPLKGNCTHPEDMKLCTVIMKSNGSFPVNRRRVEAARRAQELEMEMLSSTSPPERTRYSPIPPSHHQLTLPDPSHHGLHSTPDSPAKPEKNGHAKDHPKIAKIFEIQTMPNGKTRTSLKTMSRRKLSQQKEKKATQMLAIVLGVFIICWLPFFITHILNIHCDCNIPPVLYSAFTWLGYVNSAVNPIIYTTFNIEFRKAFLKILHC

Consider `O=C(N[C@H]1CC[C@](F)(CCN2CCc3nc(OCC(F)F)sc3CC2)CC1)c1cccnc1C(F)F` [Example I-160], for which the Ki in experiment [1] is 0.83 nM; in experiment [2] (setting [3]), 1100 nM.
For `O=C(N[C@H]1CC[C@H](CCN2CCc3nc(OCC(F)F)sc3CC2)CC1)c1cccnc1C(F)F` [Example I-161] the same measures were 0.32 nM and 940 nM.
For `CC(F)(F)COc1nc2c(s1)CCN(CC[C@]1(F)CC[C@@H](NC(=O)c3cccnc3C(F)F)CC1)CC2` [Example I-162] the same measures were 0.56 nM and 740 nM.
The like results for `CC(F)(F)COc1nc2c(s1)CCN(CC[C@H]1CC[C@H](NC(=O)c3cccnc3C(F)F)CC1)CC2` [Example I-163] were, in that order, 0.31 nM and 430 nM.
`O=C(N[C@H]1CC[C@H](CCN2CCc3nc(OC4CC(F)(F)C4)sc3CC2)CC1)c1cccnc1C(F)F` [Example I-168]: the Ki in experiment [1] was found to be 0.31 nM; in experiment [2] (setting [3]), 1000 nM.
For `C[C@@H](Oc1ccc2c(n1)CCN(CC[C@]1(F)CC[C@@H](NC(=O)Cc3cnn(C)n3)CC1)CC2)C(F)(F)F` [Example I-174] the same measures were 0.33 nM and 370 nM.
For `Cc1nc(CC(=O)N[C@H]2CC[C@](F)(CCN3CCc4ccc(O[C@H](C)C(F)(F)F)nc4CC3)CC2)nn1C` [Example I-180] the same measures were 0.85 nM and 850 nM.
As for `Cn1c(C(=O)NC23CCC(CCN4CCc5nc(OCC(F)(F)F)sc5CC4)(CC2)CC3)cccc1=O` [II-1], the Ki worked out at 0.17 nM in experiment [1] and 830 nM in experiment [2] ([3H]-Methylspiperone 1.2 nM).
For `CN1Cc2c(C(=O)NC34CCC(CCN5CCc6nc(OCC(F)(F)F)sc6CC5)(CC3)CC4)cccc2C1=O` [II-2] the same measures were 0.079 nM and greater than 2200 nM.
For `O=C(NC12CCC(CCN3CCc4nc(OCC(F)(F)F)sc4CC3)(CC1)CC2)c1cccnc1C(F)F` [II-3] the same measures were 0.29 nM and 1400 nM.
The like results for `Cn1ncc(CC(=O)NC23CCC(CCN4CCc5nc(OCC(F)(F)F)sc5CC4)(CC2)CC3)n1` [II-4] were, in that order, 0.16 nM and 1400 nM.
Regarding `Cc1nnc(CC(=O)NC23CCC(CCN4CCc5nc(OCC(F)(F)F)sc5CC4)(CC2)CC3)o1` [II-5], the figures for the Ki in experiment [1] and in experiment [2] ([3H]-Methylspiperone 1.2 nM) were 0.2 nM and 1300 nM, respectively.
For `Cc1ncc(CC(=O)NC23CCC(CCN4CCc5nc(OCC(F)(F)F)sc5CC4)(CC2)CC3)cn1` [II-6] the same measures were 0.35 nM and 1200 nM.
The like results for `Cc1ncccc1C(=O)NC12CCC(CCN3CCc4nc(OCC(F)(F)F)sc4CC3)(CC1)CC2` [II-7] were, in that order, 0.39 nM and 1700 nM.
`CN1Cc2c(C(=O)NC34CCC(CCN5CCc6nc(OCC(F)F)sc6CC5)(CC3)CC4)cccc2C1=O` [II-10]: the Ki in experiment [1] was 0.5 nM; in experiment [2] ([3H]-Methylspiperone 1.2 nM), greater than 2300 nM.
The like results for `Cc1ncccc1C(=O)NC12CCC(CCN3CCc4ccc(OCC(F)F)nc4CC3)(CC1)CC2` [II-13] were, in that order, 0.56 nM and 2100 nM.
Consider `Cc1cnc(CC(=O)NC23CCC(CCN4CCc5ccc(OCC(C)(F)F)nc5CC4)(CC2)CC3)o1` [II-14], for which the results for the Ki in experiment [1] and in experiment [2] ([3H]-Methylspiperone 1.2 nM) were 0.23 nM and 760 nM, respectively.
As for `Cc1ncc(/C=C/C(=O)NC23CCC(CCN4CCc5nc(OCC(F)(F)F)sc5CC4)(CC2)CC3)cn1` [II-15], the Ki came to 0.16 nM in experiment [1] and 240 nM in experiment [2] ([3H]-Methylspiperone 1.2 nM).
As for `Cc1nnc(CC(=O)N[C@H]2CC[C@](F)(CCN3CCc4ccc(CCC(F)(F)F)nc4CC3)CC2)s1` [III-1], the figures for the Ki in experiment [1] and in experiment [2] (setting [3]) were 0.14 nM and greater than 2300 nM, respectively.
For the compound `Cc1nc(CC(=O)N[C@H]2CC[C@](F)(CCN3CCc4ccc(CCC(F)(F)F)nc4CC3)CC2)nn1C` [III-2], the Ki in experiment [1] was determined as 0.16 nM; in experiment [2] (setting [3]), 1200 nM.
For `Cc1cc(CC(=O)N[C@H]2CC[C@](F)(CCN3CCc4ccc(CCC(F)(F)F)nc4CC3)CC2)on1` [III-3] the same measures were 0.029 nM and greater than 2300 nM.
On to `Cc1nnc(CC(=O)N[C@H]2CC[C@H](CCN3CCc4nc(O[C@@H](C)C(F)(F)F)sc4CC3)CC2)o1` [III-4], for which the Ki was determined as 0.16 nM in experiment [1] and 780 nM in experiment [2] (setting [3]).
With `C[C@H](Oc1nc2c(s1)CCN(CC[C@H]1CC[C@H](NC(=O)c3cccc(=O)n3C)CC1)CC2)C(F)(F)F` [III-5], the Ki amounted to 0.23 nM in experiment [1] and 1000 nM in experiment [2] (setting [3]).
For `C[C@H](Oc1nc2c(s1)CCN(CC[C@H]1CC[C@H](NC(=O)Cc3cnn(C)n3)CC1)CC2)C(F)(F)F` [III-6] the same measures were 0.15 nM and 1600 nM.
For `Cc1nnc(CC(=O)N[C@H]2CC[C@H](CCN3CCc4ccc(O[C@@H](C)C(F)(F)F)nc4CC3)CC2)o1` [III-7] the same measures were 0.09 nM and 290 nM.
The like results for `Cc1nnc(CC(=O)N[C@H]2CC[C@](F)(CCN3CCc4nc(OCC(F)(F)C(F)F)sc4CC3)CC2)o1` [III-8] were, in that order, 0.16 nM and 480 nM.
On to `Cn1ncc(CC(=O)N[C@H]2CC[C@](F)(CCN3CCc4nc(OCC(F)(F)C(F)F)sc4CC3)CC2)n1` [III-9], for which the results for the Ki in experiment [1] and in experiment [2] (setting [3]) were 0.081 nM and 770 nM, respectively.
In the case of `Cc1ncccc1C(=O)N[C@H]1CC[C@H](CCN2CCc3ccc(CCC(F)(F)F)nc3CC2)CC1` [I′-1], the Ki in experiment [1] came to 0.43 nM; in experiment [2] ([3H]-Methylspiperone 1.2 nM) it was 920 nM.
The like results for `COc1cc(CC(=O)N[C@H]2CC[C@H](CCN3CCc4ccc(CCC(F)(F)F)nc4CC3)CC2)on1` [I′-2] were, in that order, 0.21 nM and greater than 2300 nM.
The like results for `Cc1nnc(CC(=O)N[C@H]2CC[C@H](CCN3CCc4ccc(CCC(F)(F)F)nc4CC3)CC2)o1` [I′-3] were, in that order, 0.18 nM and 1100 nM.
The like results for `Cn1cc(CC(=O)N[C@H]2CC[C@H](CCN3CCc4ccc(CCC(F)(F)F)nc4CC3)CC2)cn1` [I′-4] were, in that order, 0.22 nM and 1200 nM.
Consider `Cn1c(C(=O)N[C@H]2CC[C@H](CCN3CCc4ccc(CCC(F)(F)F)nc4CC3)CC2)cccc1=O` [I′-5], for which the Ki in experiment [1] is 0.22 nM; in experiment [2] ([3H]-Methylspiperone 1.2 nM), 610 nM.
The like results for `Cc1ncc(OCC(=O)N[C@H]2CC[C@H](CCN3CCc4ccc(CCC(F)(F)F)nc4CC3)CC2)cn1` [I′-7] were, in that order, 0.12 nM and 1100 nM.
For `Cc1cc(OCC(=O)N[C@H]2CC[C@H](CCN3CCc4ccc(CCC(F)(F)F)nc4CC3)CC2)no1` [I′-8] the same measures were 0.071 nM and greater than 2300 nM.
Turning to `Cn1cc2c(C(=O)N[C@H]3CC[C@H](CCN4CCc5ccc(CCC(F)(F)F)nc5CC4)CC3)ccc(F)c2n1` [I′-9], the results for the Ki in experiment [1] and in experiment [2] ([3H]-Methylspiperone 1.2 nM) were 0.11 nM and 530 nM, respectively.
The like results for `Cc1ncc(CC(=O)N[C@H]2CC[C@H](CCN3CCc4ccc(CCC(F)(F)F)nc4CC3)CC2)o1` [I′-10] were, in that order, 0.23 nM and 1100 nM.
On to `Cc1nc(CC(=O)N[C@H]2CC[C@H](CCN3CCc4ccc(CCC(F)(F)F)nc4CC3)CC2)no1` [I′-11], for which the Ki in experiment [1] turned out to be 0.18 nM; in experiment [2] ([3H]-Methylspiperone 1.2 nM), 1200 nM.
For `Cc1nnc(CC(=O)N[C@H]2CC[C@H](CCN3CCc4ccc(CCC(F)(F)F)nc4CC3)CC2)s1` [I′-12] the same measures were 0.29 nM and 820 nM.
The like results for `Cc1cnc(OCC(=O)N[C@H]2CC[C@H](CCN3CCc4ccc(CCC(F)(F)F)nc4CC3)CC2)cn1` [I′-13] were, in that order, 0.43 nM and 910 nM.
